From patent publication US8741928B2, “Protected antimicrobial compounds for high temperature applications” (Dow Global Technologies LLC, priority 2010, dated 2014)

Tests used:
[1] = Analysis of glutaraldehyde release after heat-aging; type: physicochemical; details: sterile deionized water, molar equivalent of 2000 ppm glutaraldehyde, initial and after heat-aging at 55° C. for 2 h or 24 h; for Glutaraldehyde concentration after pre-column derivatization by HPLC: acidic derivatization
Description: Samples of the AMPD-adduct and TA-adduct are analyzed for glutaraldehyde content. Samples are prepared in sterile deionized water at the molar equivalent of 2000 ppm glutaraldehyde. A standard of 500 ppm glutaraldehyde is also prepared. An initial measurement is taken just after sample preparation. Samples are then heat-aged at 55° C. for 2 h or 24 h and analyzed again. Glutaraldehyde concentration is measured directly via GC and after pre-column derivatization by HPLC.

T. thermophilus = test: Biocidal efficacy against thermophilic bacteria at 70° C.; type: cell-based; details: for Kill of bacteria maintained over 21 days: equivalent to 50 ppm glutaraldehyde, 4 hr exposure between challenge and enumeration, weekly challenges over 21 days
Description: b. Thermophilic Bacteria. A 48-72 hour old culture of T. thermophilus is pelleted by centrifuging at 2000 g and the pellet resuspended in 10 times the culture volume of buffer (PBS or carbonate-buffered synthetic freshwater). The suspension is distributed into 10 mL aliquots in glass screw-cap tubes. Each tube is then treated with glutaraldehyde or an adduct and incubated at 70° C. At indicated timepoints, cell density in each tube is measured via dilution to extinction by serially diluting a sample and plating dilutions on solid media.

For `CC12COC3CCCC(OC1)N32` (centres unmarked) [AMPD-adduct, 2a-methyloctahydro-1,4-dioxa-2a1-azacyclopenta[cd]indene], the “Glutaraldehyde concentration measured directly via GC” value [1] was “No glutaraldehyde is detected”, the “Glutaraldehyde concentration after pre-column derivatization by HPLC” value [1] was “low levels of glutaraldehyde” and the “Kill of bacteria maintained over 21 days” value (T. thermophilus) was 4 log.

For `OCC12COC3CCCC(OC1)N32` (centres unmarked) [TA-adduct, (octahydro-1,4-dioxa-2a^1-azacyclopenta[cd]inden-2a-yl)methanol], the “Glutaraldehyde concentration measured directly via GC” value [1] was “No glutaraldehyde is detected”, the “Glutaraldehyde concentration after pre-column derivatization by HPLC” value [1] was “low levels of glutaraldehyde” and the “Kill of bacteria maintained over 21 days” value (T. thermophilus) was 4 log.

With `O=CCCCC=O` [glutaraldehyde, reference compound] the “Control of bacterial levels after 5 days” value (T. thermophilus; equivalent of 100 ppm glutaraldehyde, after 5 days) was “fails to control bacterial levels” and the “Kill of bacteria maintained over 21 days” value (T. thermophilus) was 4 log.
